In publication PMC12260505, “First-in-Human Phase I/IIa Study of the First-in-Class CDK2/4/6 Inhibitor PF-06873600 Alone or with Endocrine Therapy in Patients with Breast Cancer” (Clinical Cancer Research, 2025):
“And” between values parts separate entries of the source, which are not always exact repeats. Equal values may be shown once.

Assay: Plasma PF-06873600 pharmacokinetics (LC/MS-MS, noncompartmental analysis)
Type: in vivo, human
Experimental: Plasma samples were analyzed for PF-06873600 concentrations at Q2 Solutions using a validated analytic assay in compliance with Pfizer standard operating procedures. PF-06873600 samples were assayed by a validated LC/MS-MS using positive ionization mode. PK parameters were calculated using noncompartmental analysis of plasma concentration–time data.

[1] = 25 mg twice daily, after multiple dosing
[2] = Cycle 1 Day 1, Part 1 25 mg BID IR (pooled cohorts)
[3] = Cycle 1 Day 1, Part 1A 1 mg BID IR
[4] = Cycle 1 Day 1, Part 1A 2 mg BID IR
[5] = Cycle 1 Day 1, Part 1A 5 mg BID IR
[6] = Cycle 1 Day 1, Part 1A 10 mg BID IR
[7] = Cycle 1 Day 1, Part 1A 25 mg BID Biomarker IR
[8] = Cycle 1 Day 1, Part 1A 25 mg BID IR
[9] = Cycle 1 Day 1, Part 1A 35 mg BID IR
[10] = Cycle 1 Day 1, Part 1A 35 mg BID Intm 5/2 IR
[11] = Cycle 1 Day 1, Part 1A 50 mg BID IR
[12] = Cycle 1 Day 1, Part 1B 25 mg BID +Ful IR
[13] = Cycle 1 Day 1, Part 1B 25 mg BID +Let IR
[14] = Cycle 1 Day 1, Part 1C MR 20 mg lead-in IR 25 mg BID
[15] = Cycle 1 Day 1, Part 1C MR 30 mg BID long duration
[16] = Cycle 1 Day 15, Part 1 25 mg BID IR (pooled cohorts)
[17] = Cycle 1 Day 15, Part 1A 1 mg BID IR

SMILES: C[C@@]1(O)CCC[C@H]1n1c(=O)c(C(F)F)cc2cnc(NC3CCN(S(C)(=O)=O)CC3)nc21 [PF-06873600]
- Geometric mean coefficient of variation percentage, AUCtau [1]: 45%
- Geometric mean coefficient of variation percentage, Cmax [1]: 43%
- Geometric mean coefficient of variation percentage, Cmin [1]: 119%
- Geometric mean coefficient of variation percentage, AUCinf (25 mg twice daily, single dose): 58%
- Geometric mean coefficient of variation percentage, Cmax (25 mg twice daily, single dose): 56%
- AUCinf, geometric mean (%CV) [2]: 1019 (58) ng.h/mL
- AUClast, geometric mean (%CV) [2]: 912.4 (52) ng.h/mL
- CL/F, geometric mean (%CV) [2]: 24.55 (58) L/h
- Cmax, geometric mean (%CV) [2]: 194 ng/mL
- Tmax, median (range) [2]: 2.00 h
- Vz/F, geometric mean (%CV) [2]: 85.26 (52) L
- t1/2, arithmetic mean±standard deviation [2]: 2.444 ± 0.4523 h
- AUCinf, individual value(s) [3]: 21.0 ng·h/mL
- AUClast, individual value(s) [3]: 18.3 ng·h/mL
- CL/F, individual value(s) [3]: 47.6 L/h
- Cmax, individual value(s) [3]: 5.39 ng/mL
- Tmax, median (range) [3]: 2.17 h
- Vz/F, individual value(s) [3]: 111 L
- t1/2, individual value(s) [3]: 5800 s
- AUCinf, individual value(s) [4]: 45.2 ng·h/mL
- AUClast, individual value(s) [4]: 39.2 ng·h/mL and 58.3 ng·h/mL
- CL/F, individual value(s) [4]: 44.2 L/h
- Tmax, median (range) [4]: 1.25 h
- Vz/F, individual value(s) [4]: 116 L
- t1/2, individual value(s) [4]: 6550 s
- AUCinf, individual value(s) [5]: 101 ng·h/mL
- AUClast, individual value(s) [5]: 96.6 ng·h/mL and 442 ng·h/mL
- CL/F, individual value(s) [5]: 49.7 L/h
- Tmax, median (range) [5]: 2.02 h
- Vz/F, individual value(s) [5]: 141 L
- t1/2, individual value(s) [5]: 7060 s
- AUCinf, geometric mean (%CV) [6]: 648.4 (60) ng.h/mL
- AUClast, geometric mean (%CV) [6]: 599.4 (53) ng.h/mL
- CL/F, geometric mean (%CV) [6]: 15.43 (60) L/h
- Cmax, geometric mean (%CV) [6]: 164 ng/mL
- Tmax, median (range) [6]: 0.983 h
- Vz/F, geometric mean (%CV) [6]: 55.32 (28) L
- t1/2, arithmetic mean±standard deviation [6]: 2.567 h
- AUCinf, geometric mean (%CV) [7]: 892.6 (73) ng.h/mL
- AUClast, geometric mean (%CV) [7]: 787.9 (59) ng.h/mL
- CL/F, geometric mean (%CV) [7]: 28.04 (73) L/h
- Tmax, median (range) [7]: 1.90 h
- Vz/F, geometric mean (%CV) [7]: 97.32 (56) L
- t1/2, arithmetic mean±standard deviation [7]: 2.446 h
- AUCinf, geometric mean (%CV) [8]: 1492 (20) ng.h/mL
- AUClast, geometric mean (%CV) [8]: 1295 (25) ng.h/mL
- CL/F, geometric mean (%CV) [8]: 16.78 (20) L/h
- Cmax, geometric mean (%CV) [8]: 244 ng/mL
- Tmax, median (range) [8]: 2.17 h
- Vz/F, geometric mean (%CV) [8]: 61.33 (20) L
- t1/2, arithmetic mean±standard deviation [8]: 2.540 h
- AUCinf, individual value(s) [9]: 2010 ng·h/mL and 3400 ng·h/mL
- AUClast, geometric mean (%CV) [9]: 2510 (25) ng.h/mL
- CL/F, individual value(s) [9]: 10.3 L/h and 17.4 L/h
- Cmax, geometric mean (%CV) [9]: 388 ng/mL
- Tmax, median (range) [9]: 3.64 h
- Vz/F, individual value(s) [9]: 55.5 L and 60.0 L
- t1/2, individual value(s) [9]: 8600 s and 13500 s
- AUCinf, geometric mean (%CV) [10]: 1614 (48) ng.h/mL
- AUClast, geometric mean (%CV) [10]: 1395 (38) ng.h/mL
- CL/F, geometric mean (%CV) [10]: 21.70 (48) L/h
- Cmax, geometric mean (%CV) [10]: 276 ng/mL
- Tmax, median (range) [10]: 2.02 h
- Vz/F, geometric mean (%CV) [10]: 86.06 (37) L
- t1/2, arithmetic mean±standard deviation [10]: 2.809 h
- AUCinf, geometric mean (%CV) [11]: 1875 (41) ng.h/mL
- AUClast, geometric mean (%CV) [11]: 1976 (49) ng.h/mL
- CL/F, geometric mean (%CV) [11]: 26.63 (41) L/h
- Cmax, geometric mean (%CV) [11]: 394 ng/mL
- Tmax, median (range) [11]: 3.49 h
- Vz/F, geometric mean (%CV) [11]: 79.74 (15) L
- t1/2, arithmetic mean±standard deviation [11]: 2.163 h
- AUCinf, geometric mean (%CV) [12]: 884.3 (34) ng.h/mL
- AUClast, geometric mean (%CV) [12]: 1034 (43) ng.h/mL
- CL/F, geometric mean (%CV) [12]: 28.26 (34) L/h
- Cmax, geometric mean (%CV) [12]: 225 ng/mL
- Tmax, median (range) [12]: 1.97 h
- Vz/F, geometric mean (%CV) [12]: 83.54 (17) L
- t1/2, arithmetic mean±standard deviation [12]: 2.128 h
- AUCinf, geometric mean (%CV) [13]: 1142 (50) ng.h/mL
- AUClast, geometric mean (%CV) [13]: 1040 (46) ng.h/mL
- CL/F, geometric mean (%CV) [13]: 21.87 (50) L/h
- Cmax, geometric mean (%CV) [13]: 228 ng/mL
- Tmax, median (range) [13]: 2.52 h
- Vz/F, geometric mean (%CV) [13]: 72.18 (37) L
- t1/2, arithmetic mean±standard deviation [13]: 2.428 h
- AUCinf, geometric mean (%CV) [14]: 593.3 (17) ng.h/mL
- AUClast, geometric mean (%CV) [14]: 596.8 (33) ng.h/mL
- CL/F, geometric mean (%CV) [14]: 42.14 (17) L/h
- Cmax, geometric mean (%CV) [14]: 122 ng/mL
- Tmax, median (range) [14]: 2.00 h
- Vz/F, geometric mean (%CV) [14]: 132.2 (52) L
- t1/2, arithmetic mean±standard deviation [14]: 2.250 h
- AUClast, geometric mean (%CV) [15]: 192.0 (201) ng.h/mL
- Cmax, geometric mean (%CV) [15]: 43.5 ng/mL
- Tmax, median (range) [15]: 10.0 (5.35–10.2) h
- AUCtau, geometric mean (%CV) [16]: 1351 (45) ng.h/mL
- CL/F, geometric mean (%CV) [16]: 18.53 (45) L/h
- Cmax, geometric mean (%CV) [16]: 315.5 (43) ng/mL
- Cmin, geometric mean (%CV) [16]: 30.23 (119) ng/mL
- Rac (observed accumulation ratio based on AUC), geometric mean (%CV) [16]: 1.135 (34)
- Tmax, median (range) [16]: 1.94 h
- Vz/F, geometric mean (%CV) [16]: 75.77 (43) L
- t1/2, arithmetic mean±standard deviation [16]: 2.765 h
- AUCtau, individual value(s) [17]: 25.3 ng·h/mL
- CL/F, individual value(s) [17]: 39.5 L/h
